Key:
BIR2 domain of XIAP = molecular target: T1, BIR2 domain of XIAP (Homo sapiens, UniProt P98170, C202A/C213G); assay: TR-FRET assay for BIR2 (inhibition of binding of XIAP BIR2 domain to SMAC-derived Peptide A); conditions: 6x Histidine-tagged BIR2 domain (amino acids 124-240 of XIAP) 10 nM, Peptide A 20 nM
T1 construct: 6× Histidine-tagged BIR2 domain, corresponding to amino acids 124-240 of XIAP
Procedure: (§1) TR-FRET Assay for BIR2 and BIR3
(§2) The ability of a test compound to inhibit the binding of BIR2 and/or BIR3 domains of the XIAP protein to Peptide A (a SMAC-derived peptide described below) evidences that the test compound acts as a SMAC-mimetic resulting in reactivation of a cell's apoptotic pathway.
(§3) The peptides were labeled with the fluorescent tags FITC or TAMRA and Kd values were determined by fluorescence polarization assay. […] The peptide sequence was derivatized with biotin to provide […]-(ε-biotin)-OH 1:2 TFA as the substrate for the TR-FRET assay.
The XIAP protein sequence was obtained from the SWISS-PROT protein sequence database and the BIR2 and BIR3 domains were derived from that. The sequence of the BIR2 domain used for the TR-FRET assay is […].
Time-resolved fluorescence resonance energy transfer (TR-FRET) signals were measured 1 hour later at room temperature. Test compound potency was assessed at 10 serially diluted concentrations. Percentage of inhibition at each concentration was determined to generate an IC50 value for each test compound.

BIR3 domain of XIAP = molecular target: T2, BIR3 domain of XIAP (Homo sapiens, UniProt P98170); assay: TR-FRET assay for BIR3 (inhibition of binding of XIAP BIR3 domain to SMAC-derived Peptide A); conditions: 6x Histidine-tagged BIR3 domain (amino acids 241-356 of XIAP) 10 nM, Peptide A 20 nM
T2 construct: BIR3 domain, corresponding to amino acids 241-356 of XIAP
T2 sequence (P98170 with tags, fused parts or gaps): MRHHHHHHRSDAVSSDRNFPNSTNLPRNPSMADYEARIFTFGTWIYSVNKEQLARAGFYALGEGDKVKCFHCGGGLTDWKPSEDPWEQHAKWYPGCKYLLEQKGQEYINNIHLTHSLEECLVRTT
Procedure: as §1, §2, §3
The sequence of the BIR3 domain used for the TR-FRET assay is […]
Ten nanomolar of 6× Histidine-tagged BIR2 domain, corresponding to amino acids 124-240 of XIAP, or BIR3 domain, corresponding to amino acids 241-356 of XIAP, was mixed with 20 nM of the peptide […]-(z-biotin)-OH 1:2 TFA, in the presence of 50 mM Tris-Cl, pH 7.5, 100 mM NaCl, 1 mM dithiothreitol (DTT) and 0.1 mg/mL bovine serum albumin (BSA). Following a […] incubation at 37° C., Europium-Streptavidin and Allophycocyanin conjugated anti-Histidine antibody were added to a final concentration of 1.5 nM and 15 nM, respectively. Time-resolved fluorescence resonance energy transfer (TR-FRET) signals were measured 1 hour later at room temperature. Test compound potency was assessed at 10 serially diluted concentrations. Percentage of inhibition at each concentration was determined to generate an IC50 value for each test compound.

T1 sequence (P98170 with tags, fused parts or gaps C202A/C213G): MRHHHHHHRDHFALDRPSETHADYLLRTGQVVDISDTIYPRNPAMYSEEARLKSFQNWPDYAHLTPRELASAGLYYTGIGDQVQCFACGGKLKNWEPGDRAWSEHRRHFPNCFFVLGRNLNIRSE

| SMILES | IC50 (BIR2 domain of XIAP) [µM] | IC50 (BIR3 domain of XIAP) [µM] |
| --- | --- | --- |
| CCNC(=O)C1Cc2cccnc2N1C(=O)[C@@H](NC(=O)[C@H](C)NC)C(C)C (mixture of isomers) [Example 1, (R,S)-1-[(S)-3-Methyl-2-((S)-2-methylamino-propionylamino)-butyryl]-2,3-dihydro-1H-pyrrolo[2,3-b]pyridine-2-carboxylic acid ethylamide] | 1.04 | > 54.8 |
| CN[C@@H](C)C(=O)N[C@H](C(=O)N1CC(C)(C)c2cccnc21)C(C)C [Example 2, (S)—N—[(S)-1-(3,3-Dimethyl-2,3-dihydro-pyrrolo[2,3-b]pyridine-1-carbonyl)-2-methyl-propyl]-2-methylamino-propionamide] | 3.88 | > 54.8 |
| CC[C@H](NC)C(=O)N[C@H](C(=O)N1CC(C)(C)c2cccnc21)C(C)C [Example 3, (S)—N—[(S)-1-(3,3-Dimethyl-2,3-dihydro-pyrrolo[2,3-b]pyridine-1-carbonyl)-2-methyl-propyl]-2-methylamino-butyramide] | 4.03 | > 54.8 |
| CCNC(=O)C1Cc2cccnc2N1C(=O)[C@@H](NC(=O)[C@H](C)NC)C1CCCCC1 (stereo partly drawn) [Example 4, (R,S)-1-[(S)-2-Cyclohexyl-2-((S)-2-methylamino-propionylamino)-acetyl]-2,3-dihydro-1H-pyrrolo[2,3-b]pyridine-2-carboxylic acid ethylamide] | 2.12 | > 54.8 |
| CCNC(=O)C1Cc2cccnc2N1C(=O)[C@@H](NC(=O)[C@H](CC)NC)C1CCCCC1 (stereo partly drawn) [Example 5, (R,S)-1-[(S)-2-Cyclohexyl-2-((S)-2-methylamino-butyrylamino)-acetyl]-2,3-dihydro-1H-pyrrolo[2,3-b]pyridine-2-carboxylic acid ethylamide] | 1.86 | > 54.8 |
| CCNC(=O)C1Cc2cccnc2N1C(=O)[C@@H](NC(=O)[C@H](C)NC)[C@@H](C)CC (stereo partly drawn) [Example 6, (R,S)-1-[(2S,3S)-3-Methyl-2-((S)-2-methylamino-propionylamino)-pentanoyl]-2,3-dihydro-1H-pyrrolo[2,3-b]pyridine-2-carboxylic acid ethylamide] | 1.28 | > 54.8 |
| CCNC(=O)C1Cc2cccnc2N1C(=O)[C@@H](NC(=O)[C@H](CC)NC)[C@@H](C)CC (stereo partly drawn) [Example 7, (R,S)-1-[(2S,3S)-3-Methyl-2-((S)-2-methylamino-butyrylamino)-pentanoyl]-2,3-dihydro-1H-pyrrolo[2,3-b]pyridine-2-carboxylic acid ethylamide] | 1.03 | > 54.8 |
| CN[C@@H](C)C(=O)N[C@H](C(=O)N1c2ncccc2CC1C(N)=O)C(C)C (stereo partly drawn) [Example 8, (R,S)-1-[(S)-3-Methyl-2-((S)-2-methylamino-propionylamino)-butyryl]-2,3-dihydro-1H-pyrrolo[2,3-b]pyridine-2-carboxylic acid amide] | 0.501 | > 54.8 |
| CN[C@@H](C)C(=O)N[C@H](C(=O)N1c2ncccc2C[C@@H]1C(=O)Nc1ccccc1OC)C(C)C [Example 9, (R)-1-[(S)-3-Methyl-2-((S)-2-methylamino-propionylamino)-butyryl]-2,3-dihydro-1H-pyrrolo[2,3-b]pyridine-2-carboxylic acid (2-methoxy-phenyl)-amide] | 12.7 | > 54.8 |
| CN[C@@H](C)C(=O)N[C@H](C(=O)N1c2ncccc2C[C@H]1C(=O)Nc1ccccc1OC)C(C)C [Example 10, (S)-1-[(S)-3-Methyl-2-((S)-2-methylamino-propionylamino)-butyryl]-2,3-dihydro-1H-pyrrolo[2,3-b]pyridine-2-carboxylic acid (2-methoxy-phenyl)-amide] | 0.0841 | 25.9 |
| CN[C@@H](C)C(=O)N[C@H](C(=O)N1c2ncccc2C[C@H]1C(=O)Nc1ccccc1)C(C)C [Example 11, (S)-1-[(S)-3-Methyl-2-((S)-2-methylamino-propionylamino)-butyryl]-2,3-dihydro-1H-pyrrolo[2,3-b]pyridine-2-carboxylic acid phenylamide] | 0.0635 | > 54.8 |
| CN[C@@H](C)C(=O)N[C@H](C(=O)N1c2ncccc2C[C@@H]1C(=O)Nc1ccccc1)C(C)C [Example 12, (R)-1-[(S)-3-Methyl-2-((S)-2-methylamino-propionylamino)-butyryl]-2,3-dihydro-1H-pyrrolo[2,3-b]pyridine-2-carboxylic acid phenylamide] | > 54.8 | > 54.8 |
| CN[C@@H](C)C(=O)N[C@H](C(=O)N1c2ncccc2C[C@@H]1C(=O)Nc1ccccc1C)C(C)C [Example 13, (R)-1-[(S)-3-Methyl-2-((S)-2-methylamino-propionylamino)-butyryl]-2,3-dihydro-1H-pyrrolo[2,3-b]pyridine-2-carboxylic acid o-tolylamide] | > 54.8 | > 54.8 |
| CN[C@@H](C)C(=O)N[C@H](C(=O)N1c2ncccc2C[C@H]1C(=O)Nc1ccccc1C)C(C)C [Example 14, (S)-1-[(S)-3-Methyl-2-((S)-2-methylamino-propionylamino)-butyryl]-2,3-dihydro-1H-pyrrolo[2,3-b]pyridine-2-carboxylic acid o-tolylamide] | 0.0335 | > 54.8 |
| CN[C@@H](C)C(=O)N[C@H](C(=O)N1c2ncccc2C[C@@H]1C(=O)NCc1ccccc1)C(C)C [Example 15, (R)-1-[(S)-3-Methyl-2-((S)-2-methylamino-propionylamino)-butyryl]-2,3-dihydro-1H-pyrrolo[2,3-b]pyridine-2-carboxylic acid benzylamide] | 1.8 | 45.9 |
| CN[C@@H](C)C(=O)N[C@H](C(=O)N1c2ncccc2C[C@H]1C(=O)NCc1ccccc1)C(C)C [Example 16, (S)-1-[(S)-3-Methyl-2-((S)-2-methylamino-propionylamino)-butyryl]-2,3-dihydro-1H-pyrrolo[2,3-b]pyridine-2-carboxylic acid benzylamide] | 0.159 | 3.95 |
| CN[C@@H](C)C(=O)N[C@H](C(=O)N1c2ncccc2C[C@H]1C(=O)NCc1cc(Cl)ccc1C)C(C)C [Example 17, (S)-1-[(S)-3-Methyl-2-((S)-2-methylamino-propionylamino)-butyryl]-2,3-dihydro-1H-pyrrolo[2,3-b]pyridine-2-carboxylic acid 5-chloro-2-methyl-benzylamide] | 0.392 | 24.3 |
| CN[C@@H](C)C(=O)N[C@H](C(=O)N1c2ncccc2C[C@H]1C(=O)Nc1ccccc1-c1ccccc1)C(C)C [Example 18, (S)-1-[(S)-3-Methyl-2-((S)-2-methylamino-propionylamino)-butyryl]-2,3-dihydro-1H-pyrrolo[2,3-b]pyridine-2-carboxylic acid biphenyl-2-ylamide] | 0.108 | 37.6 |
| CN[C@@H](C)C(=O)N[C@H](C(=O)N1c2ncccc2C[C@H]1C(=O)Nc1cccc2ccccc12)C(C)C [Example 19, (S)-1-[(S)-3-Methyl-2-((S)-2-methylamino-propionylamino)-butyryl]-2,3-dihydro-1H-pyrrolo[2,3-b]pyridine-2-carboxylic acid naphthalen-1-ylamide] | 0.0545 | 35.1 |
| CN[C@@H](C)C(=O)N[C@H](C(=O)N1c2ncccc2C[C@@H]1C(=O)Nc1cnccc1C)C(C)C [Example 20, (R)-1-[(S)-3-Methyl-2-((S)-2-methylamino-propionylamino)-butyryl]-2,3-dihydro-1H-pyrrolo[2,3-b]pyridine-2-carboxylic acid (4-methyl-pyridin-3-yl)-amide] | 1.36 | > 54.8 |
| CN[C@@H](C)C(=O)N[C@H](C(=O)N1c2ncccc2C[C@H]1C(=O)Nc1ccc(F)cc1)C(C)C [Example 21, (S)-1-[(S)-3-Methyl-2-((S)-2-methylamino-propionylamino)-butyryl]-2,3-dihydro-1H-pyrrolo[2,3-b]pyridine-2-carboxylic acid (4-fluoro-phenyl)-amide] | 0.275 | > 54.8 |
| CN[C@@H](C)C(=O)N[C@H](C(=O)N1c2ncccc2C[C@H]1C(=O)Nc1ccc(F)cc1C)C(C)C [Example 22, (S)-1-[(S)-3-Methyl-2-((S)-2-methylamino-propionylamino)-butyryl]-2,3-dihydro-1H-pyrrolo[2,3-b]pyridine-2-carboxylic acid (4-fluoro-2-methyl-phenyl)-amide] | 0.103 | > 54.8 |
